These results are taken from US20260159512A1, “BCAT2 INHIBITORS” (AGIOS PHARMACEUTICALS, INC., priority 2021, published 2026).

Common to all, as to settings: average where tested multiple times
Test [1] addresses T1, BCAT2 (Homo sapiens, UniProt O15382).
T1 sequence (O15382 28-392): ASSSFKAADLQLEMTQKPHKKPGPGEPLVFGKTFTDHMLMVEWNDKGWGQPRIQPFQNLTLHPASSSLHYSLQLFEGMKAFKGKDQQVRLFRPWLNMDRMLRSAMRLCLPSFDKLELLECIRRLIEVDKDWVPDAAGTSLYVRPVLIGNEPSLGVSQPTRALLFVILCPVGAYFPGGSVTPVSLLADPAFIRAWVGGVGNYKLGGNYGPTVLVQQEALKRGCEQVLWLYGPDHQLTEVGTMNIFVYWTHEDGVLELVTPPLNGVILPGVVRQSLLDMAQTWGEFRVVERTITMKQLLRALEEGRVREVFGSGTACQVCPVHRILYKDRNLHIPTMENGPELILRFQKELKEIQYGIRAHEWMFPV
The experiment in a line: BCAT2 in vitro enzyme inhibition assay (resazurin/diaphorase-coupled fluorescence). In kind it is biochemical. The procedure, abridged:
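Coupled fluorescence readout: glutamate formed from L-leucine/α-ketoglutarate transamination drives GDH/NAD/diaphorase reduction of resazurin (Ex 540/Em 590). Human BCAT2 was first exposed 1 h at room temperature to compound, top final 100 μM in 3-fold, 10-point series; substrate reaction ran 1 h before SDS quench, in technical duplicate with DMSO max and enzyme-free min controls.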

For a further test, the target named is T2, hBCAT1 (Homo sapiens, UniProt P54687).
T2 sequence (P54687 1-386): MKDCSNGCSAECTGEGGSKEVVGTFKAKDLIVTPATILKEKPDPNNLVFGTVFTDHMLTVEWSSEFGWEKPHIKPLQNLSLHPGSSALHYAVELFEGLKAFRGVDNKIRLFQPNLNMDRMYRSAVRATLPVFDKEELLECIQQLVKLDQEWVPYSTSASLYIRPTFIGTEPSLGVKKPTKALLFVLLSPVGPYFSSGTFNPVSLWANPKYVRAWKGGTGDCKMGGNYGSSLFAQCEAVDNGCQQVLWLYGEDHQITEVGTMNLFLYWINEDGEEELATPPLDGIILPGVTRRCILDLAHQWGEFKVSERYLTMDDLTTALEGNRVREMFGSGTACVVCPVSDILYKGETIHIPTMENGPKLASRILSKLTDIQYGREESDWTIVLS
The experiment in a line: BCAT1 in vitro enzyme inhibition assay (resazurin/diaphorase-coupled fluorescence). In kind it is biochemical. In a few lines: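 Human BCAT1 activity read by resazurin/diaphorase-coupled fluorescence. Compounds added from 50× DMSO stocks at 1:50, giving 10-point 3-fold titrations from 100 μM top final concentration. Run in technical duplicate; repeat tests averaged.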
On the technique in general: The colour change of resazurin is a common sign of viable cells or microbes.

In test [2] the target is T1, BCAT2. Description: BCAT2 in vitro cell inhibition using engineered A549 cells (KMV cell assay, 13C6-KMV by LC-MS/MS). The format is cell-based. More on the design: The result was an engineered A549 cell line that expressed endogenous BCAT2; endogenous in cells; host or cells: A549 cells with MUT and BCAT1 knocked out by CRISPR/CAS9; key to BCAT2 Cell Inhibition: A: less than or equal to 0.100 μM; B: greater than 0.100 and less than or equal to 0.500 μM; C: greater than 0.500 and less than or equal to 1.000 μM; d: greater than 1.000 μM; E: no fit.

Where “and” joins values, the source holds several entries; their conditions need not be identical. Identical values can stand only once.

The term IC50 denotes the concentration needed to halve the response being measured. Consider `Cn1cc(-c2nc3cnc(-n4nccn4)cc3n2[C@@H]2CCC[C@H](NC(=O)c3ncc(C(F)F)s3)C2)cn1` [Example 45, 5-(difluoromethyl)-N-((1S,3R)-3-(2-(1-methyl-1H-pyrazol-4-yl)-6-(2H-1,2,3-triazol-2-yl)-1H-imidazo[4,5-c]pyridin-1-yl)cyclohexyl)thiazole-2-carboxamide], for which the IC50 against BCAT2 [1] is over 1000 nM; at hBCAT1, over 5000 nM. Further, the “BCAT2 Cell Inhibition” value on BCAT2 [2] is given as “E”.

On to `Cn1cc(-c2nc3cnc(-n4ccnn4)cc3n2[C@@H]2CCC[C@H](NC(=O)c3ncc(C(F)F)s3)C2)cn1` [Example 46, 5-(difluoromethyl)-N-((1S,3R)-3-(2-(1-methyl-1H-pyrazol-4-yl)-6-(1H-1,2,3-triazol-1-yl)-1H-imidazo[4,5-c]pyridin-1-yl)cyclohexyl)thiazole-2-carboxamide], for which the IC50 is over 1000 nM against BCAT2 [1] and over 5000 nM against hBCAT1. In addition, the “BCAT2 Cell Inhibition” value at BCAT2 [2] is on record as “E”.

Consider `Cc1noc(C)c1-c1nc2cnc(-n3nccn3)cc2n1[C@@H]1CCC[C@H](NC(=O)c2ncc(C(F)F)s2)C1` [Example 47, 5-(difluoromethyl)-N-((1S,3R)-3-(2-(3,5-dimethylisoxazol-4-yl)-6-(2H-1,2,3-triazol-2-yl)-1H-imidazo[4,5-c]pyridin-1-yl)cyclohexyl)thiazole-2-carboxamide], for which the IC50 was 500 to 1000 nM against BCAT2 [1] and over 5000 nM on hBCAT1. In addition, the “BCAT2 Cell Inhibition” value on BCAT2 [2] is on record as “E”.

Turning to `Cc1noc(C)c1-c1nc2cnc(-n3ccnn3)cc2n1[C@@H]1CCC[C@H](NC(=O)c2ncc(C(F)F)s2)C1` [Example 48, 5-(difluoromethyl)-N-((1S,3R)-3-(2-(3,5-dimethylisoxazol-4-yl)-6-(1H-1,2,3-triazol-1-yl)-1H-imidazo[4,5-c]pyridin-1-yl)cyclohexyl)thiazole-2-carboxamide], the concentration for half-maximal inhibition (IC50) is over 1000 nM against BCAT2 [1] and over 5000 nM against hBCAT1. The “BCAT2 Cell Inhibition” value on BCAT2 [2] is on record as “E”.

As for `O=C(N[C@H]1CCC[C@@H](n2c(-c3ncccc3F)nc3cnc(N4CCCC4=O)cc32)C1)c1ncc(C(F)F)s1` [Example 49, 5-(difluoromethyl)-N-((1S,3R)-3-(2-(3-fluoropyridin-2-yl)-6-(2-oxopyrrolidin-1-yl)-1H-imidazo[4,5-c]pyridin-1-yl)cyclohexyl)thiazole-2-carboxamide], the 50% inhibitory concentration (IC50) at BCAT2 [1] is 100 to 500 nM; against hBCAT1 it was over 5000 nM. For the same molecule, at BCAT2 [2], the “BCAT2 Cell Inhibition” value is “E”.

As to `O=C(N[C@H]1CCC[C@@H](n2c(-c3ccccn3)nc3cnc(-c4nn[nH]n4)cc32)C1)c1ncc(C(F)F)s1` [Example 50, 5-(difluoromethyl)-N-((1S,3R)-3-(2-(pyridin-2-yl)-6-(2H-tetrazol-5-yl)-1H-imidazo[4,5-c]pyridin-1-yl)cyclohexyl)thiazole-2-carboxamide], the results for the IC50 against BCAT2 [1] and against hBCAT1 were at most 100 nM and under 500 nM, respectively. Besides, the “BCAT2 Cell Inhibition” value on BCAT2 [2] is recorded as “E”.

As for `Cc1nc2cnc(-n3ccnn3)cc2n1[C@@H]1CCC[C@H](NC(=O)c2ccc(Br)s2)C1` [Example 52, 5-bromo-N-((1S,3R)-3-(2-methyl-6-(1H-1,2,3-triazol-1-yl)-1H-imidazo[4,5-c]pyridin-1-yl)cyclohexyl)thiophene-2-carboxamide], the IC50 on BCAT2 [1] is over 1000 nM; against hBCAT1 it was over 5000 nM. Further, the “BCAT2 Cell Inhibition” value at BCAT2 [2] is “E”.

For `O=C(N[C@H]1CCC[C@@H](n2c(-c3ccccn3)nc3cnc(-c4nc[nH]n4)cc32)C1)c1ncc(C(F)F)s1` [Example 53, 5-(difluoromethyl)-N-((1S,3R)-3-(2-(pyridin-2-yl)-6-(1H-1,2,4-triazol-3-yl)-1H-imidazo[4,5-c]pyridin-1-yl)cyclohexyl)thiazole-2-carboxamide], the values for the IC50 at BCAT2 [1], against hBCAT1 and on BCAT2 [2] were at most 100 nM, under 500 nM and at most 100 nM, respectively.

Turning to `O=C(N[C@H]1CCC[C@@H](n2c(-c3ncccc3F)nc3cnc(-c4cc[nH]n4)cc32)C1)c1ncc(C(F)F)s1` [Example 55, 5-(difluoromethyl)-N-((1S,3R)-3-(2-(3-fluoropyridin-2-yl)-6-(1H-pyrazol-3-yl)-1H-imidazo[4,5-c]pyridin-1-yl)cyclohexyl)thiazole-2-carboxamide], the IC50 against BCAT2 [1] is at most 100 nM; on hBCAT1 it was under 500 nM; at BCAT2 [2], at most 100 nM.

For the molecule `O=C(N[C@H]1CCC[C@@H](n2c(-n3cccn3)nc3cnc(-n4nccn4)cc32)C1)c1ncc(C(F)F)s1` [Example 56, N-((1S,3R)-3-(2-(1H-pyrazol-1-yl)-6-(2H-1,2,3-triazol-2-yl)-1H-imidazo[4,5-c]pyridin-1-yl)cyclohexyl)-5-(difluoromethyl)thiazole-2-carboxamide], the half-maximal inhibitory concentration (IC50) was at most 100 nM against BCAT2 [1], 1000 to 5000 nM at hBCAT1 and 100 to 500 nM at BCAT2 [2].

In the case of `O=C(N[C@H]1CCC[C@@H](n2c(-c3ncccc3F)nc3cnc(-n4nccn4)nc32)C1)c1ncc(C(F)F)s1` [Example 58, 5-(difluoromethyl)-N-((1S,3R)-3-(8-(3-fluoropyridin-2-yl)-2-(2H-1,2,3-triazol-2-yl)-9H-purin-9-yl)cyclohexyl)thiazole-2-carboxamide], the IC50 on BCAT2 [1] is at most 100 nM; against hBCAT1, 1000 to 5000 nM; against BCAT2 [2], 100 to 500 nM.

For the molecule `O=C(N[C@H]1CCC[C@@H](n2c(-c3ncccc3F)nc3cnc(-n4ccnn4)nc32)C1)c1ncc(C(F)F)s1` [Example 59, 5-(difluoromethyl)-N-((1S,3R)-3-(8-(3-fluoropyridin-2-yl)-2-(1H-1,2,3-triazol-1-yl)-9H-purin-9-yl)cyclohexyl)thiazole-2-carboxamide], the IC50 was 100 to 500 nM at BCAT2 [1], over 5000 nM against hBCAT1 and over 1000 nM against BCAT2 [2].

On to `Cc1cccnc1-c1nc2cnc(-n3nccn3)cc2n1[C@@H]1CCC[C@H](NC(=O)c2ncc(C(F)F)s2)C1` [Example 60, 5-(difluoromethyl)-N-((1S,3R)-3-(2-(3-methylpyridin-2-yl)-6-(2H-1,2,3-triazol-2-yl)-1H-imidazo[4,5-c]pyridin-1-yl)cyclohexyl)thiazole-2-carboxamide], for which the results for the IC50 against BCAT2 [1], on hBCAT1 and against BCAT2 [2] were at most 100 nM, 500 to 1000 nM and 100 to 500 nM, respectively.

Consider `C#Cc1cnc(C(=O)N[C@H]2CCC[C@@H](n3c(-c4ncccc4C)nc4cnc(-n5nccn5)cc43)C2)s1` [Example 61, 5-ethynyl-N-((1S,3R)-3-(2-(3-methylpyridin-2-yl)-6-(2H-1,2,3-triazol-2-yl)-1H-imidazo[4,5-c]pyridin-1-yl)cyclohexyl)thiazole-2-carboxamide], for which the values for the IC50 on BCAT2 [1], against hBCAT1 and at BCAT2 [2] were at most 100 nM, under 500 nM and at most 100 nM, respectively.

On to `O=C(N[C@H]1CCC[C@@H](n2c(-c3ccccc3F)nc3cnc(-n4nccn4)nc32)C1)c1ncc(C(F)F)s1` [Example 62, 5-(difluoromethyl)-N-((1S,3R)-3-(8-(2-fluorophenyl)-2-(2H-1,2,3-triazol-2-yl)-9H-purin-9-yl)cyclohexyl)thiazole-2-carboxamide], for which the results for the IC50 at BCAT2 [1], at hBCAT1 and against BCAT2 [2] were at most 100 nM, 500 to 1000 nM and at most 100 nM, respectively.

As for `O=C(N[C@H]1CCC[C@@H](n2c(Oc3ccccc3)nc3cnc(-n4nccn4)cc32)C1)c1ccc(Br)s1` [Example 63, 5-bromo-N-((1S,3R)-3-(2-phenoxy-6-(2H-1,2,3-triazol-2-yl)-1H-imidazo[4,5-c]pyridin-1-yl)cyclohexyl)thiophene-2-carboxamide], the figures for the IC50 against BCAT2 [1], against hBCAT1 and at BCAT2 [2] were at most 100 nM, over 5000 nM and 100 to 500 nM, respectively.

Turning to `COC(=O)c1cnn(-c2cc3c(cn2)nc(-c2ccccn2)n3[C@@H]2CCC[C@H](NC(=O)c3ncc(C(F)F)s3)C2)n1` [Example 64, methyl 2-(1-((1R,3S)-3-(5-(difluoromethyl)thiazole-2-carboxamido)cyclohexyl)-2-(pyridin-2-yl)-1H-imidazo[4,5-c]pyridin-6-yl)-2H-1,2,3-triazole-4-carboxylate], the IC50 at BCAT2 [1] was at most 100 nM; on hBCAT1, 1000 to 5000 nM; on BCAT2 [2], 100 to 500 nM and 500 to 1000 nM.
